Source: patent publication US20250163056A1, “NONMUSCLE MYOSIN II INHIBITORS” (The University of Florida Research Foundation, Inc., priority 2018, published 2025)

Assays:
Bovine cardiac myosin = Bovine cardiac myosin (Bos taurus (Bovine), UniProt Q9BE39); assay: Cardiac muscle myosin II actin-activated ATPase assay (NADH-coupled); type: biochemical; set-up: key to Ratio CMMII:NMII Ki/EC50: NMII-sel: no Ki value for cardiac myosin II could be determined; the compounds had no detectable inhibitory properties versus the cardiac myosin II; settings: for Ki: 300 nM cardiac myosin, 10 μM actin, 25° C., read-out: CMMII KI; for Ratio CMMII:NMII Ki/EC50: cardiac myosin II Ki over nonmuscle myosin II EC50
Excerpt: (§1) The cardiac muscle myosin II actin-activated ATPase assay is a biochemical assay. Specifically, it is an NADH (nicotinamide adenine dinucleotide)-coupled ATPase assay that relies on NADH fluorescence as a readout. Cardiac myosin is a mechanochemical energy transducer that hydrolyzes ATP to generate force in the presence of its activator, F-actin. The resulting ADP is regenerated to ATP by pyruvate kinase (PK) that transforms one molecule of phosphoenolpyruvate (PEP) to pyruvate in parallel. Subsequently, pyruvate is reduced to lactate by lactate dehydrogenase (LDH) that, in turn, oxidizes one molecule of NADH to NAD. Therefore, the decrease in NADH concentration as a function of time equals the ATP hydrolysis rate. Bovine cardiac myosin is obtained from a commercial source, Cytoskeleton. PK, LDH, ATP, PEP, and NADH are obtained from Sigma. F-actin is prepared in house from Rabbit Muscle Acetone Powder. The assay is run at 25° C. in 384 well black-wall polystyrene microplates with a total volume of 20 μl per well. NADH fluorescence is monitored for 30 minutes with an EnVision Multimode Plate Reader. The slope of the fluorescence response, which is proportional to the reaction rate, is determined by simple linear regression. Final assay conditions are 300 nM cardiac myosin, 10 μM actin, 40 U/ml LDH, 200 U/ml PK, 220 μM NADH, 1 mM PEP, 1 mM ATP in a buffer containing 10 mM 3-(N-morpholino)propanesulfonic acid (pH=7.0), 2 mM MgCl2, 0.15 mM ethylene glycol-bis(p-aminoethyl ether)-N,N,N′,N′-tetraacetic acid, 0.1 mg/mL bovine serum albumin, 0.5% (V/V) dimethyl sulfoxide (DMSO) and 1 mM dithiothreitol. Prior to testing the inhibitory activity of the compounds, a two-fold dilution series starting at 10 mM compound concentration is prepared in DMSO. Subsequently, 100 nl is transferred to each well of the measuring plate containing a mixture of myosin, LDH and PK. The enzymatic reaction is started with the addition of a mixture containing ATP, PEP, NADH and actin. The highest final compound concentration is 50 uM. 20 μM para-aminoblebbistatin in 0.5% DMSO serves as the positive control and 0.5% DMSO alone is the negative control. Reaction rates are determined by using the fluorescence responses of a dilution series of NADH included in all plates and plotted as a function of inhibitor concentration. All measurements are carried out in triplicate. Inhibitory constants are determined by fitting the 16 point dose-response data to a quadratic equation corresponding to a simple one-to-one binding model.

Rabbit skeletal myosin = assay: Skeletal muscle myosin II actin-activated ATPase assay; type: biochemical; settings: 20 nM skeletal muscle myosin II; read-out: SKMMII KI
Excerpt: as §1
The skeletal muscle myosin II actin-activated ATPase assay is performed the same as for cardiac muscle myosin II with the following exceptions: Rabbit skeletal myosin is obtained from Cytoskeleton and the final assay conditions contain 20 nM skeletal muscle myosin II.

[1] = Photostability, percentage remaining undegraded under illumination or in the dark; settings: for Photostability 4 hours: percentage remaining undegraded after 4 hours illumination; for Photostability 24 hours: percentage remaining undegraded after 24 hours illumination; for Photostability Dark (24 h): percentage remaining undegraded in the dark

Sequence of Bovine cardiac myosin (Q9BE39 whole entry): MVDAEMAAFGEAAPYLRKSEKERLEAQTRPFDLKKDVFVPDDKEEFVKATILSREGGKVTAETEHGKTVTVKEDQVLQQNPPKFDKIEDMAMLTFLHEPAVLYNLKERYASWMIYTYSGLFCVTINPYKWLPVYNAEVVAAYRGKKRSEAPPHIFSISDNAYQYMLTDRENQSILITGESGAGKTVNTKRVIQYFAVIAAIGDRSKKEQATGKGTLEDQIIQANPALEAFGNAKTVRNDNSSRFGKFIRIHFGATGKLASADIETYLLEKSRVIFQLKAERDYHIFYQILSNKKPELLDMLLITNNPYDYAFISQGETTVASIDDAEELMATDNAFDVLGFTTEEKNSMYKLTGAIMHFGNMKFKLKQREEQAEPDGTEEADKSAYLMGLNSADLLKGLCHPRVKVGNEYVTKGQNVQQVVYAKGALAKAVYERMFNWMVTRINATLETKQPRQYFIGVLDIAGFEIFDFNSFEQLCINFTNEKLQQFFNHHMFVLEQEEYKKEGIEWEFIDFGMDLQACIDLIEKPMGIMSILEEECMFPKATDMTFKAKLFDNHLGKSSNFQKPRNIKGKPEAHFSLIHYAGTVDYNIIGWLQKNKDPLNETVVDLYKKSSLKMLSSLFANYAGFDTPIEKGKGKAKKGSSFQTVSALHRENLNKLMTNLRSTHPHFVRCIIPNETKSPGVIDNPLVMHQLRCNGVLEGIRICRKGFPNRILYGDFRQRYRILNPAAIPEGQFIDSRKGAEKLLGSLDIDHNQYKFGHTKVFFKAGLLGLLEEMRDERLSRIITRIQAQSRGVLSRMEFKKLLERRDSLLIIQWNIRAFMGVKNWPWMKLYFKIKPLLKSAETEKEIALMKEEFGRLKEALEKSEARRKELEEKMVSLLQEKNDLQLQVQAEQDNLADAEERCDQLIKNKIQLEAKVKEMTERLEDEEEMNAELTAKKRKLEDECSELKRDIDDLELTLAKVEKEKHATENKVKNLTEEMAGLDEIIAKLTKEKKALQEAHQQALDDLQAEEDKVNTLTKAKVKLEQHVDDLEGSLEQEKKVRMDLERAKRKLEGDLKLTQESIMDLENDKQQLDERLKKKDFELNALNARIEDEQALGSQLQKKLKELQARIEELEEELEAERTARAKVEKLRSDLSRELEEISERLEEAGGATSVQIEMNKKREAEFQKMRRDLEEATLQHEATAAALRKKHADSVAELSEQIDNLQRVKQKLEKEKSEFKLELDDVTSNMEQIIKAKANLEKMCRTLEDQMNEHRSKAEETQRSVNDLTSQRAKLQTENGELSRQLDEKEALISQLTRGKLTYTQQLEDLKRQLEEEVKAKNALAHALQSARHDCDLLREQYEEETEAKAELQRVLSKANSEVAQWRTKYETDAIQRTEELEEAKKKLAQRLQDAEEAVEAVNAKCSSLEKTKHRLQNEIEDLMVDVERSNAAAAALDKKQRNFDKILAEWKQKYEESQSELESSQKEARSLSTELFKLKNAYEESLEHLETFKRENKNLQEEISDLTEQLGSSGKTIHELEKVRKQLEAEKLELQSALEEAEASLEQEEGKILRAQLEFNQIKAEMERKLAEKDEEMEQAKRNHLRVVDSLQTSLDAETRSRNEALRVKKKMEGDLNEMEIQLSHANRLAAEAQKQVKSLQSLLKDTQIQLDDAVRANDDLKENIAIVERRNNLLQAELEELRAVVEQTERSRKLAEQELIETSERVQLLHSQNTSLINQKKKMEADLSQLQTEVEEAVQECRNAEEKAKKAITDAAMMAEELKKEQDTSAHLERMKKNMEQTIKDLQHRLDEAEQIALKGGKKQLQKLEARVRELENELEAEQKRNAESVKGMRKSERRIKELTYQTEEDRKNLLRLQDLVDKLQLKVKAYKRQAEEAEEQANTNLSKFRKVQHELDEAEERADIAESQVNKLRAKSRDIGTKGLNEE
Sequence of Bovine cardiac myosin (P85100 whole entry partner): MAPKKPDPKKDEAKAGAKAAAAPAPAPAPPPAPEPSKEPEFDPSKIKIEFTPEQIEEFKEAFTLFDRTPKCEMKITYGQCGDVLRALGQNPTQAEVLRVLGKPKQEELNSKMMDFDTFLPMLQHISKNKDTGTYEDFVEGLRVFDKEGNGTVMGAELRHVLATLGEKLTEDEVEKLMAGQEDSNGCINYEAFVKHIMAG
Sequence of Bovine cardiac myosin (Q3SZE5 whole entry partner): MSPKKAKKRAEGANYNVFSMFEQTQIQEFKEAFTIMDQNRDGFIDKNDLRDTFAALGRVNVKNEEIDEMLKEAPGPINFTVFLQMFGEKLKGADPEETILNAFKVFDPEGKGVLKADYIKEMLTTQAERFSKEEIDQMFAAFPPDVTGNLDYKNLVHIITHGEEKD

Row | Compound | Ki (Bovine cardiac myosin) | Ratio CMMII:NMII Ki/EC50 (Bovine cardiac myosin) | Ki (Rabbit skeletal myosin) | Photostability 4 hours [1] | Photostability 24 hours [1] | Photostability Dark (24 h) [1]
1 | Cc1ncc(N2CC[C@@]3(O)C(=O)c4cc(F)c(C(F)(F)F)cc4N=C23)s1 [BPN-0026667] | 6.2 µM | 5.2 | 0.33 µM | 85.7% | 2.9% | >99%
2 | Cc1cc2c(cc1F)C(=O)[C@]1(O)CCN(c3ccccc3)C1=N2 [BPN-0026669] | 25 µM | 4.7 | 1.2 µM | 87.8% | 11.2% | >99%
3 | Cc1ncc(N2CC[C@@]3(O)C(=O)c4cc(C)c(C)cc4N=C23)s1 [BPN-0026693] | 3.5 µM | 6.0 | 0.27 µM | 34.1% | 1.7% | >99%
4 | Cc1cc2c(cc1C)C(=O)[C@]1(O)CCN(c3cccs3)C1=N2 [BPN-0026708] | 5.3 µM | 3.1 | 1.4 µM | 40.7% | <1% | >99%
5 | COc1cc(N2CC[C@@]3(O)C(=O)c4cc(C)c(C)cc4N=C23)ccn1 [BPN-0026709] | 30.6 µM | 25.5 | 1.3 µM | 98.7% | 93.0% | 98.2%
6 | Cc1cc2c(cc1C)C(=O)[C@]1(O)CCN(c3cnn(C)c3)C1=N2 [BPN-0026710] | 5.2 µM | 3.1 | 0.95 µM | 6.6% | <1% | >99%
7 | Cc1cc2cc(N3CC[C@@]4(O)C(=O)c5cc(F)c(C)cc5N=C34)ccc2o1 [BPN-0026726] | – | NMII-sel | 4.4 µM | 76.3% | 24.1% | 95.4%
8 | COc1cc(N2CC[C@@]3(O)C(=O)c4cc(F)c(C)cc4N=C23)ccn1 [BPN-0026745] | 73 µM | 25.2 | 2.6 µM | >99% | 94.2% | >99%
9 | Cc1cc2c(cc1F)C(=O)[C@]1(O)CCN(c3cnn(C)c3)C1=N2 [BPN-0026746] | 17 µM | 3.8 | 3.6 µM | 58.8% | 10.6% | >99%
10 | Cc1cc2c(cc1F)C(=O)[C@]1(O)CCN(c3cccs3)C1=N2 [BPN-0026748] | 14 µM | 4.7 | 2.6 µM | 88.2% | 22.4% | >99%
11 | CCc1cc2c(s1)N=C1N(c3ccc4ccoc4c3)CC[C@@]1(O)C2=O [BPN-0026749] | – | NMII-sel | 23 µM | 87.8% | <5% | >99%
12 | CCc1cc2c(s1)N=C1N(c3ccc(Cl)cc3)CC[C@@]1(O)C2=O [BPN-0026770] | – | NMII-sel | 1.5 µM | >99% | 92.9% | >99%
13 | CCc1cc2c(s1)N=C1N(c3ccc(C)cc3)CC[C@@]1(O)C2=O [BPN-0026774] | 8.9 µM | 3.4 | 1.1 µM | 86.7% | 18.1% | >99%
14 | O=C1c2c(sc3ccccc23)N=C2N(c3ccccc3)CC[C@@]12O [BPN-0026785] | 23 µM | 3.1 | 5.9 µM | 95.8% | 59.3% | 91.6%
15 | COc1ccc(N2CC[C@@]3(O)C(=O)c4c(sc(C)c4C)N=C23)cc1 [BPN-0026813] | 1.6 µM | 3.1 | 0.11 µM | 82.0% | <1% | >99%
16 | Cc1sc2c(c1C)C(=O)[C@]1(O)CCN(c3ccc(Cl)cc3)C1=N2 [BPN-0026815] | 2.8 µM | 3.6 | 0.27 µM | 91.2% | 88.2% | 90.2%
17 | Cc1ccc(N2CC[C@@]3(O)C(=O)c4cc(C)c(C(F)(F)F)cc4N=C23)cc1 [BPN-0026819] | 50 µM | 27.8 | 1.7 µM | 96.6% | 84.8% | 97.3%
18 | CCc1cc2c(s1)N=C1N(c3ccc(C#N)c(C)c3)CC[C@@]1(O)C2=O [BPN-0026848] | 320 µM | 12.3 | 61 µM | >99% | 98.7% | >99%
19 | COc1ccc(N2CC[C@@]3(O)C(=O)c4cc(C)c(C(F)(F)F)cc4N=C23)cc1 [BPN-0026849] | 16 µM | 16.0 | 0.77 µM | 98.5% | 91.8% | >99%
20 | Cc1cc2cc(N3CC[C@@]4(O)C(=O)c5cc(C)c(C)cc5N=C34)ccc2o1 [BPN-0026852] | 25 µM | 9.6 | 5.6 µM | 62.4% | 3.8% | 85.1%
21 | CCc1cc2c(s1)N=C1N(c3ccc(OC)cc3)CC[C@@]1(O)C2=O [BPN-0026881] | 11 µM | 6.1 | 0.8 µM | 70.9% | 1.8% | >99%
22 | Cc1cc2c(s1)C(=O)[C@]1(O)CCN(c3ccc(C)c(Cl)c3)C1=N2 [BPN-0026882] | 21 µM | 3.6 | 4.5 µM | 98.8% | 96.8% | >99%
23 | Cc1ccc2c(c1)C(=O)[C@]1(O)CCN(c3ccc4ncsc4c3)C1=N2 [BPN-0027036] | 22 µM | 7.3 | 4.9 µM | 90.2% | 24.7% | 97.4%
24 | COc1cc(N2CC[C@@]3(O)C(=O)c4cc(C)c(C(F)(F)F)cc4N=C23)ccn1 [BPN-0027037] | – | NMII-sel | 18 µM | >99% | >99% | >99%
25 | CCc1cc2c(s1)N=C1N(c3ccc(C#N)cc3)CC[C@@]1(O)C2=O [BPN-0027038] | 17 µM | 6.3 | 0.61 µM | >99% | 98.7% | >99%
26 | Cc1ccc2c(c1)C(=O)[C@]1(O)CCN(c3ccc4cccnc4c3)C1=N2 [BPN-0027039] | 68 µM | 3.1 | 4.6 µM | 89.8% | 31.3% | 95.9%
27 | Cc1ccc2c(c1)C(=O)[C@]1(O)CCN(c3ccc4ncccc4c3)C1=N2 [BPN-0027040] | 37 µM | 30.8 | 2.6 µM | 94.8% | 21.4% | 95.7%
28 | Cc1ccc2c(c1)C(=O)[C@]1(O)CCN(c3ccc4ccncc4c3)C1=N2 [BPN-0027042] | – | NMII-sel | 10 µM | 92.7% | 13.8% | >99%
